# In PubChem BioAssay AID280 (DTP/NCI, 2004):
# Several values for one entry are separate records, joined by “and”; a condition that tells them apart may be missing. Equal values may be shown once. Toxic doses and inconclusive results are not listed.
# System: nude mice, LOX melanoma ip, survival T/C
# Assay: NCI In Vivo Anticancer Drug Screen. Data for tumor model Human Amelanotic Melanoma (LOX) (intraperitoneal) in NU/NU BALB/C (nude) mice
# Conditions: endpoint: median survival time, higher = longer survival
# Experimental: The antitumor activity of compounds was measured in mice bearing transplantable tumors. Survival or tumor size were measured and the results are expressed as the measurement made in the treated group (T) divided by the measurement made in the vehicle treated control group (C). The tumor model used in this assay is Human Amelanotic Melanoma (LOX) (intraperitoneal) in NU/NU BALB/C (nude) mice
# [1] = dose: 37.5 mg/kg/injection, schedule: Q04DX003 (ip), vehicle: saline with Tween-80
# [2] = dose: 75.0 mg/kg/injection, schedule: Q04DX003 (ip), vehicle: saline with Tween-80
# [3] = dose: 300.0 mg/kg/injection, schedule: Q04DX003 (ip), vehicle: saline with Tween-80
# [4] = dose: 75.0 mg/kg/injection, schedule: Q04DX003 (ip), vehicle: saline
# [5] = dose: 150.0 mg/kg/injection, schedule: Q04DX003 (ip), vehicle: saline
compound,measurement,setting,value
CO[C@H](/C(C)=C/C=C/C(C)=C/c1coc(C)n1)[C@H](C)[C@H]1C[C@@H](O)[C@@]2(C)O[C@H]2/C=C/[C@@H](C)[C@@H]2C[C@@H](CC(=O)O2)C[C@H]2O[C@@H]2C(=O)O1,T/C,"dose: 0.09 mg/kg/injection, schedule: Q01DX009 (ip), vehicle: other",176 % of control
same,T/C,"dose: 0.12 mg/kg/injection, schedule: Q04DX003 (ip), vehicle: other",121 % of control
same,T/C,"dose: 0.13 mg/kg/injection, schedule: Q01DX009 (ip), vehicle: other",180 % of control
same,T/C,"dose: 0.2 mg/kg/injection, schedule: Q01DX009 (ip), vehicle: other",175 % of control
same,T/C,"dose: 0.2 mg/kg/injection, schedule: Q04DX003 (ip), vehicle: other",108 % of control
same,T/C,"dose: 0.3 mg/kg/injection, schedule: Q01DX009 (ip), vehicle: other",152 % of control and 196 % of control
same,T/C,"dose: 0.44 mg/kg/injection, schedule: Q01DX009 (ip), vehicle: other",162 % of control
same,T/C,"dose: 0.55 mg/kg/injection, schedule: Q04DX003 (ip), vehicle: other",122 % of control
same,T/C,"dose: 0.66 mg/kg/injection, schedule: Q01DX009 (ip), vehicle: other",93 % of control
Cc1ccc(C(=O)NC2C(=O)NC(C(C)C)C(=O)N3CCCC3C(=O)N(C)CC(=O)N(C)C(C(C)C)C(=O)OC2C)c2c1Oc1c(c(C(=O)NC3C(=O)NC(C(C)C)C(=O)N4CCCC4C(=O)N(C)CC(=O)N(C)C(C(C)C)C(=O)OC3C)c3nc(-c4ccccc4)c(=O)oc3c1C)N2 (stereo not given),T/C,"dose: 0.25 mg/kg/injection, schedule: Q04DX003 (ip), vehicle: saline with Tween-80",159 % of control
same,T/C,"dose: 0.5 mg/kg/injection, schedule: Q04DX003 (ip), vehicle: saline with Tween-80",161 % of control
same,T/C,"dose: 1.0 mg/kg/injection, schedule: Q04DX003 (ip), vehicle: saline with Tween-80",224 % of control
same,T/C,"dose: 2.0 mg/kg/injection, schedule: Q04DX003 (ip), vehicle: saline with Tween-80",295 % of control
same,T/C,"dose: 4.0 mg/kg/injection, schedule: Q04DX003 (ip), vehicle: saline with Tween-80",301 % of control
Cc1ccc(NN=O)nc1,T/C,"dose: 2.5 mg/kg/injection, schedule: Q04DX003 (ip), vehicle: water",105 % of control
same,T/C,"dose: 5.0 mg/kg/injection, schedule: Q04DX003 (ip), vehicle: water",114 % of control
same,T/C,"dose: 10.0 mg/kg/injection, schedule: Q04DX003 (ip), vehicle: water",115 % of control
C=CCNC(=O)c1ccccc1SC(C)=O,T/C,[1],100 % of control
same,T/C,[2],95 % of control
same,T/C,[3],93 % of control
COc1cc2c(c(OC)c1OC)-c1ccc(SC)c(=O)cc1[C@@H](NC(C)=O)CC2,T/C,"dose: 0.25 mg/kg/injection, schedule: Q04DX003 (ip), vehicle: Klucel (hydroxypropylcellulose) (HPC)",163 % of control
same,T/C,"dose: 0.5 mg/kg/injection, schedule: Q04DX003 (ip), vehicle: Klucel (hydroxypropylcellulose) (HPC)",172 % of control and 196 % of control
same,T/C,"dose: 0.82 mg/kg/injection, schedule: Q04DX003 (ip), vehicle: Klucel (hydroxypropylcellulose) (HPC)",173 % of control
same,T/C,"dose: 1.38 mg/kg/injection, schedule: Q04DX003 (ip), vehicle: Klucel (hydroxypropylcellulose) (HPC)",193 % of control
CCCCCC[Se][Se]CCCCCC,T/C,"dose: 37.5 mg/kg/injection, schedule: Q04DX003 (ip), vehicle: Klucel (hydroxypropylcellulose) (HPC)",98 % of control
same,T/C,"dose: 75.0 mg/kg/injection, schedule: Q04DX003 (ip), vehicle: Klucel (hydroxypropylcellulose) (HPC)",96 % of control
same,T/C,"dose: 150.0 mg/kg/injection, schedule: Q04DX003 (ip), vehicle: Klucel (hydroxypropylcellulose) (HPC)",93 % of control
same,T/C,"dose: 300.0 mg/kg/injection, schedule: Q04DX003 (ip), vehicle: Klucel (hydroxypropylcellulose) (HPC)",105 % of control
CC1c2ccccc2CC(CCN(C)C)c2ccccc21 (stereo not given),T/C,"dose: 12.5 mg/kg/injection, schedule: Q04DX003 (ip), vehicle: saline with Tween-80",109 % of control
same,T/C,"dose: 25.0 mg/kg/injection, schedule: Q04DX003 (ip), vehicle: saline with Tween-80",114 % of control
same,T/C,"dose: 50.0 mg/kg/injection, schedule: Q04DX003 (ip), vehicle: saline with Tween-80",114 % of control
same,T/C,"dose: 100.0 mg/kg/injection, schedule: Q04DX003 (ip), vehicle: saline with Tween-80",109 % of control
C=C(C)/C([O-])=N/[N+](C)(C)CC(O)CCCCCCCCCCCC (stereo not given),T/C,"dose: 2.5 mg/kg/injection, schedule: Q04DX003 (ip), vehicle: Klucel (hydroxypropylcellulose) (HPC)",88 % of control
same,T/C,"dose: 5.0 mg/kg/injection, schedule: Q04DX003 (ip), vehicle: Klucel (hydroxypropylcellulose) (HPC)",91 % of control
same,T/C,"dose: 10.0 mg/kg/injection, schedule: Q04DX003 (ip), vehicle: Klucel (hydroxypropylcellulose) (HPC)",91 % of control and 98 % of control
same,T/C,"dose: 20.0 mg/kg/injection, schedule: Q04DX003 (ip), vehicle: Klucel (hydroxypropylcellulose) (HPC)",101 % of control
same,T/C,"dose: 40.0 mg/kg/injection, schedule: Q04DX003 (ip), vehicle: Klucel (hydroxypropylcellulose) (HPC)",102 % of control and 105 % of control
same,T/C,"dose: 80.0 mg/kg/injection, schedule: Q04DX003 (ip), vehicle: Klucel (hydroxypropylcellulose) (HPC)",105 % of control
same,T/C,"dose: 160.0 mg/kg/injection, schedule: Q04DX003 (ip), vehicle: Klucel (hydroxypropylcellulose) (HPC)",87 % of control
COc1ccc2oc(-c3ccc(Cl)cc3)c(N3CCN(C)CC3)c2c1,T/C,[4],91 % of control
same,T/C,[5],118 % of control
same,T/C,"dose: 300.0 mg/kg/injection, schedule: Q04DX003 (ip), vehicle: saline",90 % of control
COc1ccc2c(c1)-c1nn(CCCN(C)C)c3ccc([N+](=O)[O-])c(c13)N2,T/C,"dose: 5.8 mg/kg/injection, schedule: Q04HX006 (ip), vehicle: water",116 % of control
same,T/C,"dose: 8.8 mg/kg/injection, schedule: Q04HX006 (ip), vehicle: water",119 % of control
same,T/C,"dose: 13.3 mg/kg/injection, schedule: Q04DX003 (ip), vehicle: water",117 % of control
same,T/C,"dose: 13.3 mg/kg/injection, schedule: Q04HX006 (ip), vehicle: water",123 % of control and 96 % of control
same,T/C,"dose: 19.8 mg/kg/injection, schedule: Q04DX003 (ip), vehicle: water",113 % of control
same,T/C,"dose: 19.8 mg/kg/injection, schedule: Q04HX006 (ip), vehicle: water",123 % of control
same,T/C,"dose: 21.0 mg/kg/injection, schedule: Q04DX003 (ip), vehicle: water",107 % of control
same,T/C,"dose: 21.6 mg/kg/injection, schedule: Q04DX003 (ip), vehicle: water",103 % of control
same,T/C,"dose: 29.7 mg/kg/injection, schedule: Q04DX003 (ip), vehicle: water",114 % of control
same,T/C,"dose: 29.7 mg/kg/injection, schedule: Q04HX006 (ip), vehicle: water",123 % of control
same,T/C,"dose: 36.0 mg/kg/injection, schedule: Q04DX003 (ip), vehicle: water",114 % of control and 93 % of control
same,T/C,"dose: 44.5 mg/kg/injection, schedule: Q04DX003 (ip), vehicle: water",114 % of control and 117 % of control
same,T/C,"dose: 44.5 mg/kg/injection, schedule: Q04HX006 (ip), vehicle: water",122 % of control
same,T/C,"dose: 60.0 mg/kg/injection, schedule: Q04DX003 (ip), vehicle: water",109 % of control and 114 % of control
same,T/C,"dose: 66.7 mg/kg/injection, schedule: Q04DX003 (ip), vehicle: water",118 % of control
CNC(=O)c1cccc2c(Nc3ccc(NS(C)(=O)=O)cc3OC)c3cccc(C)c3nc12,T/C,"dose: 6.25 mg/kg/injection, schedule: Q04DX003 (ip), vehicle: suspension in saline",121 % of control
same,T/C,"dose: 15.0 mg/kg/injection, schedule: Q04DX003 (ip), vehicle: suspension in saline",158 % of control
same,T/C,"dose: 25.0 mg/kg/injection, schedule: Q04DX003 (ip), vehicle: suspension in saline",178 % of control
same,T/C,"dose: 41.66 mg/kg/injection, schedule: Q04DX003 (ip), vehicle: suspension in saline",170 % of control
same,T/C,"dose: 69.44 mg/kg/injection, schedule: Q04DX003 (ip), vehicle: suspension in saline",161 % of control
NCc1cc(O)c(O)c(O)c1,T/C,[4],107 % of control
same,T/C,[5],101 % of control
same,T/C,"dose: 600.0 mg/kg/injection, schedule: Q04DX003 (ip), vehicle: saline",102 % of control
CCCCCCCC(=O)O[C@H]1[C@H]2[C@@H](CC1(C)C)C(=O)[C@]13O[C@H]1C(=O)[C@]1(CO1)[C@]23C,T/C,"dose: 2.5 mg/kg/injection, schedule: Q04DX003 (ip), vehicle: saline with Tween-80",115 % of control
same,T/C,"dose: 5.0 mg/kg/injection, schedule: Q04DX003 (ip), vehicle: saline with Tween-80",92 % of control
same,T/C,"dose: 10.0 mg/kg/injection, schedule: Q04DX003 (ip), vehicle: saline with Tween-80",90 % of control
same,T/C,"dose: 20.0 mg/kg/injection, schedule: Q04DX003 (ip), vehicle: saline with Tween-80",103 % of control
same,T/C,"dose: 40.0 mg/kg/injection, schedule: Q04DX003 (ip), vehicle: saline with Tween-80",92 % of control
O=C(Nc1cc(Cl)ccc1C(=O)O)c1cccc(C[n+]2ccccc2)c1,T/C,[1],94 % of control and 100 % of control
same,T/C,[2],105 % of control and 90 % of control
same,T/C,[3],89 % of control
NNC(=O)c1ccncc1,T/C,"dose: 18.75 mg/kg/injection, schedule: Q04DX003 (ip), vehicle: saline",110 % of control
same,T/C,"dose: 37.5 mg/kg/injection, schedule: Q04DX003 (ip), vehicle: saline",109 % of control
